Experimental data from patent US20120282377A1, “Methods and Formulations for Inhibiting Degradation of Photosensitive Sweeteners and Sweetener Enhancers” (priority 2011, published 2012).

Experiment: Monatin stability in PET bottle types with or without additives, 1600 Langley UV exposure (Example 5)
Format: physicochemical
Settings: 1600 Langley (24 hour at 40° C.); for Monatin remaining after UV exposure (ppm): control 43.3 ppm
Description: The stability of monatin in regular PET bottles, PET bottles with UV barrier (colorless or green) and with or without Chinese Green Tea polyphenol or α-cyclodextrin was evaluated. Each sample was irradiated with an irradiation energy of 1600 Langley exposure (24 hour exposure at 40° C. in Atlas SunTest XLS+chamber, which was equivalent to four day of sun exposure in Arizona). A control formulation was used that contained monatin at 43.3 ppm. The results were analyzed by LC-MS.

[1] = Green PET with UV barrier (0.12%), additives none
[2] = PET with UV barrier, Chinese Green Tea Polyphenol TP>40 (149 ppm)
[3] = PET with UV barrier, additives none
[4] = PET with UV barrier, α-cyclodextrin (729 ppm)

NC(CC(O)(Cc1c[nH]c2ccccc12)C(=O)O)C(=O)O (stereo not shown) [Monatin, 2-amino-4-carboxy-4-hydroxy-5-(3-indolyl)-pentanoic acid]
Monatin remaining after UV exposure (%) [1]: 65.6%
Monatin remaining after UV exposure (ppm) [1]: 28.4 ppm
Monatin remaining after UV exposure (%) [2]: 77.6%
Monatin remaining after UV exposure (ppm) [2]: 33.6 ppm
Monatin remaining after UV exposure (%) [3]: 51.0%
Monatin remaining after UV exposure (ppm) [3]: 22.1 ppm
Monatin remaining after UV exposure (%) [4]: 33.3%
Monatin remaining after UV exposure (ppm) [4]: 14.4 ppm
Monatin remaining after UV exposure (%) (Regular PET, additives none): 13.4%
Monatin remaining after UV exposure (ppm) (Regular PET, additives none): 5.8 ppm
